From US20070105114A1, “Biomarkers of cyclin-dependent kinase modulation” (priority 2003, published 2007)
Structures can show the parent of a compound that is named as a salt.

System: W28729
Assay: W28729 expression by real-time quantitative PCR in cultured A2780 tumor cells
Format: cell-based, human
Settings: 20 nM
Method: Real-Time Quantitative PCR Assays: A Taqman® real-time-PCR fluorogenic assay (Applied Biosystems, Foster City, Calif., USA) was used to quantitate the levels of specific mRNA. The cdk2 inhibitor treated A2780s cells were harvested at approximately 70% confluence and total RNA was prepared using the Qiagen RNeasy 96 Kit.
Taqman® reactions were prepared as follows: 100 ng total RNA; 25 nM-750 nM Forward Primer; 25 nM-750 nM Reverse Primer; 200 nM-400 nM Taqman® Probe (fluorescent dye labeled oligonucleotide primer); 1X Buffer A (Applied Biosystems, Foster City, Calif., USA); 5.5 mM MgCl2; 300 μM DATP, dGTP, dTTP, dCTP; 1 U Amplitaq Gold; 20 U Superscript 2; 1 U RNase Inhibitor. Real-time PCR was performed using an Applied Biosystems 7700 Sequence Detection System. […]
The Sequence Detection System generates a Ct (threshold cycle) value that is used to calculate a concentration for each input messenger RNA template. Messenger RNA levels for each gene or fragment thereof of interest were normalized to GAPDH message levels to compensate for variations in total RNA quantity in the input sample. […] Ct values for the gene or fragments thereof of interest and GAPDH were inserted into the δδCt equation: Relative Quantity of Nucleic Acid Template=2^δδCt=2^(δCta-δCtb)(δCta=Ct target−Ct GAPDH, δCtb=Ct reference−Ct GAPDH) which was used to calculate a normalized relative message level. […]

CC(C)(C)c1cnc(CSc2cnc(NC(=O)C3CCNCC3)s2)o1 [cdk2 inhibitor, N-5-[[5-(1,1-Dimethylethyl)-2-oxazolyl]methyl]thio]-2-thiazolyl-4-piperidinecarboxamide, 0.5-L-tartaric acid salt]
induction of W28729: induction of W28729 occurred
time after treatment at which W28729 induction was detected: 1 h
